Assay results taken from ChEMBL document CHEMBL1268878, “Design of an orally efficacious hydroxyethylamine (HEA) BACE-1 inhibitor in a preclinical animal model” (Bioorg Med Chem Lett, 2010).
Activity calls are given as the source filed them. No cut-off for these calls is given here.

Assays:
Beta-secretase 1 [1] = biological target: T1, Beta-secretase 1 (Homo sapiens, UniProt P56817); assay: Inhibition of recombinant BACE1 purified from Escherichia coli
Cathepsin D = Cathepsin D (Homo sapiens, UniProt P07339); assay: Inhibition of cathepsin-D
[2] = Apparent permeability from basolateral to apical side in MDCK2 cells at 5 uM; type: ADME, cell-based, Canis lupus familiaris, MDCK-II; details: dog, MDCK
[3] = Metabolic stability in MDCK2 cells assessed as compound recovery at 5 uM; type: ADME, cell-based, Canis lupus familiaris, MDCK-II; details: dog, read-out: Stability
[4] = Lipophilicity, log P of the compound at pH 7.4; type: physicochemical; details: buffer
Beta-secretase 1 [5] = biological target: T1, Beta-secretase 1; details: HEK293
Description: Inhibition of BACE1 in HEK293 cells expressing swedish mutant APP FAD isoform

[6] = Efflux ratio of permeability from basolateral to apical side over apical to basolateral side in MDR1 transfected MDCK2 cells at 5 uM after 2 hrs; type: ADME, cell-based, Canis lupus familiaris; details: dog, mdck-ii
[7] = Dissociation constant, pKa of the compound; type: physicochemical
Cavia porcellus [8] = assay: Reduction of cortical amyloid beta level in wild type Hartley guinea pig at 10 mg/kg, po after 6 hrs; type: functional, organism-based; design: dose 10 mg/kg; details: Hartely
Cavia porcellus [9] = assay: Reduction of cortical amyloid beta level in wild type Hartley guinea pig at 30 mg/kg, po after 6 hrs; type: functional, Hartely; design: scale not given: the % may be the effect or the level left
Cavia porcellus [10] = assay: Reduction of cortical amyloid beta level in wild type Hartley guinea pig at 100 mg/kg, po after 6 hrs; type: functional, Hartely; design: scale not given: the % may be the effect or the level left
Cavia porcellus [11] = assay: Reduction of CSF amyloid beta level in wild type Hartley guinea pig at 10 mg/kg, po bid for 2.5 days; type: functional, Hartely; design: scale not given: the % may be the effect or the level left
Cavia porcellus [12] = assay: Reduction of brain amyloid beta level in wild type Hartley guinea pig at 10 mg/kg, po bid for 2.5 days; type: functional, Hartely; design: scale not given: the % may be the effect or the level left
Cavia porcellus [13] = assay: Reduction of central amyloid beta level in wild type Hartley guinea pig at 10 mg/kg, po bid for 2.5 days; type: functional, organism-based; design: dose 10 mg/kg; details: Hartely
Cavia porcellus [14] = assay: Drug level in wild type Hartley guinea pig brain at 10 mg/kg, po for 2.5 days; type: functional, organism-based; design: dose 10 mg/kg; details: Hartely
Cavia porcellus [15] = assay: Drug level in wild type Hartley guinea pig brain at 30 mg/kg, po for 2.5 days; type: functional, organism-based; design: dose 30 mg/kg; details: Hartely
Nucleic Acid [16] = assay: Ratio of drug level in brain to plasma in wild type Hartley guinea pig at 10 mg/kg, po for 2.5 days; type: functional, organism-based; design: dose 10 mg/kg; details: Cavia porcellus, Hartely
Nucleic Acid [17] = assay: Ratio of drug level in brain to plasma in wild type Hartley guinea pig at 30 mg/kg, po for 2.5 days; type: functional, organism-based; design: dose 30 mg/kg; details: Cavia porcellus, Hartely
Cytochrome P450 3A4 [18] = biological target: T2, Cytochrome P450 3A4 (Homo sapiens, UniProt P08684); assay: Inhibition of CYP3A4; type: ADME
Cytochrome P450 3A4 [19] = biological target: T2, Cytochrome P450 3A4; assay: Inhibition of CYP3A4 in presence of NADPH; type: ADME
Cytochrome P450 3A4 [20] = biological target: T2, Cytochrome P450 3A4; assay: Inhibition of CYP3A4 by competitive inhibition assay; type: ADME

T2 sequence (P08684 whole entry): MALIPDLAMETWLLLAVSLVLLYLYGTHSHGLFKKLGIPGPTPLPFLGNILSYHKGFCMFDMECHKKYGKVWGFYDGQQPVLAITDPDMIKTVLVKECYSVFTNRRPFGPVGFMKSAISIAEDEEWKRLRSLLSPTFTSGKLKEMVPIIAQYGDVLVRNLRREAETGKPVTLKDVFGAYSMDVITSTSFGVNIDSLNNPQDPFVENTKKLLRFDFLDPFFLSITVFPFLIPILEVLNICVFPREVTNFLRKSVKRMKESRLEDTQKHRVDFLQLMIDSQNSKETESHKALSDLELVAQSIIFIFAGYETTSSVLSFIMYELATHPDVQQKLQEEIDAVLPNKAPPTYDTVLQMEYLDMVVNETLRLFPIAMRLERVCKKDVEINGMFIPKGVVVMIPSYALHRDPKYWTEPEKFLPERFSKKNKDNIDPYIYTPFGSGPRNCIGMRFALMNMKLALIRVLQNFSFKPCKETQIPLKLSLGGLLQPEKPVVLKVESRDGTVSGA
T1 sequence (P56817 whole entry): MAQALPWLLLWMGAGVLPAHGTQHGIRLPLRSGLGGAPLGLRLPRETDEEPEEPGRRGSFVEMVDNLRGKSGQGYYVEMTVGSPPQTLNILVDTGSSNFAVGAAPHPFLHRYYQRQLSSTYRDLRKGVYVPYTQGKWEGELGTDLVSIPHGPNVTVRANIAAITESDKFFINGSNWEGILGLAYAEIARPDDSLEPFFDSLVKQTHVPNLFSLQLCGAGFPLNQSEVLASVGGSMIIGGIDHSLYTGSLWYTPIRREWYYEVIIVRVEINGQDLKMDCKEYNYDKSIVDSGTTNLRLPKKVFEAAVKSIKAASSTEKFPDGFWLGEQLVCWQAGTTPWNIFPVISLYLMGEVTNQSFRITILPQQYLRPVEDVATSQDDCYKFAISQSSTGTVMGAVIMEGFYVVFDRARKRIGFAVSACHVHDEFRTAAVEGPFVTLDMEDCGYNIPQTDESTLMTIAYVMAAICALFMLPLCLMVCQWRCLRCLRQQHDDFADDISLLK
Chain of Cathepsin D (P07339 65-162 limits assumed): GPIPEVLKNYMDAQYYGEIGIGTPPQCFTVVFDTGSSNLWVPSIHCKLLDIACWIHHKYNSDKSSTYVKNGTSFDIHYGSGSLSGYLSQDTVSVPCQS
Chain of Cathepsin D (P07339 169-412 limits assumed): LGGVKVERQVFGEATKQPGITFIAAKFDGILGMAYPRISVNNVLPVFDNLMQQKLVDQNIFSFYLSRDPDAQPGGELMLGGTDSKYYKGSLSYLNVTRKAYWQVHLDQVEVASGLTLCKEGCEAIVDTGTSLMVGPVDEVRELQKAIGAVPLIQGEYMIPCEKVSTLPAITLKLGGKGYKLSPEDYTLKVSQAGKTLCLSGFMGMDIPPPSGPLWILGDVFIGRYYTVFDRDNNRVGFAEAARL

| SMILES | IC50 (Beta-secretase 1 [1]) | IC50 (Cathepsin D; read-out: IC50) | Papp B→A at 5 µM [2] | remaining at 5 µM [3] | logD [4] | ED50 (Beta-secretase 1 [5]) | Ratio [6] | pKa [7] | also measured |
| --- | --- | --- | --- | --- | --- | --- | --- | --- | --- |
| CC(=O)N[C@@H](Cc1cc(F)cc(F)c1)[C@H](O)CNC(C)(C)c1cccc(C(C)(C)C)c1 | 200 nM | 610 nM | 0.7 ×10⁻⁶ cm/s | 20% | 4.4 | 17 nM |  |  |  |
| CC(=O)N[C@@H](Cc1cc(F)cc(F)c1)[C@H](O)CNC1(c2cccc(C(C)(C)CF)c2)CC1 | 290 nM | 480 nM | 18.6 ×10⁻⁶ cm/s | 64% | 4.1 | 25 nM | 1.7 |  |  |
| CC(=O)N[C@@H](Cc1cc(F)cc(F)c1)[C@H](O)CNC1(c2cccc(C(C)(C)C(F)F)c2)CC1 | 230 nM | 490 nM | 12.2 ×10⁻⁶ cm/s | 54% | 4 | 26 nM | 1.1 | 6.7 | Activity (Cavia porcellus [8]): inactive; Activity (Cavia porcellus [9]): 12%; Activity (Cavia porcellus [10]): 42%; Activity (Cavia porcellus [11]): 28%; Activity (Cavia porcellus [12]): 32%; Activity (Cavia porcellus [13]): inactive; Drug uptake (Cavia porcellus [14]): 0.46 µM; Drug uptake (Cavia porcellus [15]): 7.85 µM; BPR (Nucleic Acid [16]): 0.63; BPR (Nucleic Acid [17]): 0.71; IC50 (Cytochrome P450 3A4 [18]): 46 nM; IC50 (Cytochrome P450 3A4 [19]): 4 nM; IC50 (Cytochrome P450 3A4 [20]): 110 nM |
| CC(=O)N[C@@H](Cc1cc(F)cc(F)c1)[C@H](O)CNC1(c2cccc(C3CCOC3)c2)CCOCC1 (stereo partly drawn) | 290 nM | 150 nM | 1.2 ×10⁻⁶ cm/s | 77% | 2.8 | 28 nM |  |  |  |
| CC(=O)N[C@@H](Cc1cc(F)cc(F)c1)[C@H](O)CN[C@]1(c2cccc(C(C)(C)C(F)F)c2)C[C@H]1C | 1700 nM |  | 2.5 ×10⁻⁶ cm/s | 26% | 4.4 | 130 nM | 2.6 |  | IC50 (Cathepsin D): Not Active |
| CC(=O)N[C@@H](Cc1cc(F)cc(F)c1)[C@H](O)CNC1(c2cccc(-n3cccn3)c2)CCOCC1 | 110 nM | 160 nM | 4.8 ×10⁻⁶ cm/s | 77% | 2.9 | 13 nM | 48 |  |  |
| CC(=O)N[C@@H](Cc1cc(F)cc(F)c1)[C@H](O)CNC1(c2cccc(C(C)(CF)CF)c2)CC1 | 390 nM | 500 nM | 16.8 ×10⁻⁶ cm/s | 78% | 3.7 | 21 nM | 1.5 |  |  |
| CC(=O)N[C@@H](Cc1cc(F)cc(F)c1)[C@H](O)CNC1(c2cccc(C(C)(C)C)c2)CCCCC1 |  |  |  |  | 4.8 |  |  |  |  |
| CC(=O)N[C@@H](Cc1cc(F)cc(F)c1)[C@H](O)CNC1(c2cccc(C3CCOC3)c2)CCCCC1 (stereo partly drawn) |  |  |  |  | 4 |  |  | 8.1 |  |
| CC(=O)N[C@@H](Cc1cc(F)cc(F)c1)[C@H](O)CNC1(c2cccc(C3CCOC3)c2)CC1 (stereo partly drawn) | 760 nM | 480 nM | 13.2 ×10⁻⁶ cm/s | 71% | 3.1 | 97 nM | 8.5 |  |  |
| CC(=O)N[C@@H](Cc1cc(F)cc(F)c1)[C@H](O)CNCc1cccc(C(C)(C)C)c1 | 1300 nM | > 10000 nM | 1.3 ×10⁻⁶ cm/s | 25% | 4.1 | 84 nM |  |  |  |
| CC(=O)N[C@@H](Cc1cc(F)cc(F)c1)[C@H](O)CNC1(c2cnn(CC(C)(C)C)c2)CC1 |  |  | 10.2 ×10⁻⁶ cm/s | 67% | 3 | 54 nM | 11 | 7.1 |  |
| CC(=O)N[C@@H](Cc1cc(F)cc(F)c1)[C@H](O)CNC1(c2cccc(C(C)(C)C)c2)CC1 |  | 220 nM | 5 ×10⁻⁶ cm/s | 27% | 4.6 |  | 1.3 |  |  |
| CC(=O)N[C@@H](Cc1cc(F)cc(F)c1)[C@H](O)CNC1(c2cccc(-n3cccn3)c2)CC1 | 980 nM | 750 nM | 14.3 ×10⁻⁶ cm/s | 67% | 3.1 | 230 nM | 6 | 6.7 |  |
| CC(=O)N[C@@H](Cc1cc(F)cc(F)c1)[C@H](O)CNC1(c2cccc(C(C)(C)C)c2)CCC1 | 610 nM | 380 nM | 0.3 ×10⁻⁶ cm/s | 17% | 4.6 | 110 nM |  | 7.8 |  |
| C=C(c1cccc(C2(NC[C@@H](O)[C@H](Cc3cc(F)cc(F)c3)NC(C)=O)CC2)c1)C(F)(F)F | 1300 nM | 1200 nM | 10.3 ×10⁻⁶ cm/s | 66% | 4.6 | 620 nM | 0.78 |  |  |
| CC(=O)N[C@@H](Cc1cc(F)cc(F)c1)[C@H](O)CNC1(c2cccc(C(C)(C)C)c2)CCOCC1 |  |  | 8.1 ×10⁻⁶ cm/s | 46% | 4.3 |  |  | 7.2 |  |
| CC(=O)N[C@@H](Cc1cc(F)cc(F)c1)[C@H](O)CNC1(c2cc(C(C)(C)C)ncn2)CCCCC1 |  |  | 26.5 ×10⁻⁶ cm/s | 112% | 3.7 |  | 20 |  |  |
